Experimental data reported in patent publication US11814412B2, “Artificial proteins and compositions and methods thereof” (The Trustees of the University of Pennsylvania, priority 2015, dated 2023).

Biological target: 3M, mammalian maquette MR reporter (de novo heme-binding maquette protein)
Conditions: read-out: Kd (heme-binding affinity), current (preliminary) 3M before directed evolution

SMILES: C=CC1=C(C)c2cc3[nH]c(cc4nc(cc5[nH]c(cc1n2)c(C)c5CCC(=O)O)C(CCC(=O)O)=C4C)c(C)c3C=C.[Fe] [heme]
- Kd: ~1000 nM
